Source: the supplement of paper PMC11061612

Experiments:
Experiment in all cases: Bliss excess, mean over the matrix (fraction); higher = more synergy
[1] = tested on: C2BBe1 (Colorectal Carcinoma)
In short: (§1)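 Cell lines grown in DMEM/F12 or RPMI with 10% FBS were plated in 1536-well plates and held 24 hours at 37°C, 5% CO2 before 72 hours of exposure to two-drug dose matrices, with DMSO typically at 0.2%. CellTiter-Glo 2.0 luminescence gave viability, which was converted to inhibition. Vehicle wells were set to 0 and blank wells to 1. Combination Emax is the second-highest inhibition in the matrix, and Bliss excess is the observed combination effect minus the expected EA + EB − EA·EB, where EA and EB are the single-agent effects.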

[2] = tested on: COR-L105 (Lung Adenocarcinoma)
In short: as §1

[3] = tested on: GCIY (Gastric Carcinoma)
In short: as §1

[4] = tested on: HT-1197 (Bladder Carcinoma)
In short: as §1

[5] = tested on: JURL-MK1 (Chronic Myelogenous Leukemia)
In short: as §1

[6] = tested on: L-363 (Plasma Cell Myeloma)
In short: as §1

[7] = tested on: MG-63 (Osteosarcoma)
In short: as §1

[8] = tested on: MRK-nu-1 (Breast Carcinoma)
In short: as §1

[9] = tested on: NCI-H1048 (Small Cell Lung Carcinoma)
In short: as §1

[10] = tested on: NCI-H1975 (Lung Adenocarcinoma)
In short: as §1

[11] = tested on: NCI-H835 (Other Solid Carcinomas)
In short: as §1

[12] = tested on: NTERA-2-cl-D1 (Other Solid Carcinomas)
In short: as §1

[13] = tested on: RS4-11 (B-Lymphoblastic Leukemia)
In short: as §1

[14] = tested on: SCC90 (Head and Neck Carcinoma)
In short: as §1

[15] = tested on: SW1463 (Colorectal Carcinoma)
In short: as §1

[16] = tested on: TK (B-Cell Non-Hodgkin's Lymphoma)
In short: as §1

Row | SMILES | Bliss excess [1] | Bliss excess [2] | Bliss excess [3] | Bliss excess [4] | Bliss excess [5] | Bliss excess [6] | Bliss excess [7] | Bliss excess [8] | Bliss excess [9] | Bliss excess [10] | Bliss excess [11] | Bliss excess [12] | Bliss excess [13] | Bliss excess [14] | Bliss excess [15] | Bliss excess [16]
1 | Cn1cnc2c(F)c(Nc3ccc(Br)cc3Cl)c(C(=O)NOCCO)cc21 [Selumetinib] + C[C@@H]1COCCN1C2=NC(=NC(=C2)C3(CC3)[S@](=N)(=O)C)C4=C5C=CNC5=NC=C4 [AZD6738] (first compound max 10 µM, 7x7, partner max 10 µM) | -0.052 | 0.0306 | -0.0003 | 0.0196 | 0.0095 | -0.0207 | 0.0342 | -0.0317 | 0.0132 | 0.0316 | -0.0375 | -0.009 | -0.0098 | 0.0126 | -0.0121 | 0.0005
2 | NC1(C(=O)N[C@@H](CCO)c2ccc(Cl)cc2)CCN(c2ncnc3[nH]ccc23)CC1 [Capivasertib] + COc1nnc2ccc(N3CCC(c4ccc(OCCN5CCN(C)C(=O)[C@H]5C)cc4)CC3)nn12 [AZD5153] (first compound max 10 µM, 7x7, partner max 1 µM) | -0.0365 | 0.0024 | -0.0265 | 0.0255 | 0.0101 | 0.108 | -0.0237 | 0.0058 | 0.0588 | -0.0761 | 0.0792 | -0.0097 | 0.089 | 0.0079 | -0.0021 | 0.012
3 | NC1(C(=O)N[C@@H](CCO)c2ccc(Cl)cc2)CCN(c2ncnc3[nH]ccc23)CC1 [Capivasertib] + CC(C)n1c(=O)n(C)c2cnc3cc(F)c(-c4ccc(OCCCN5CCCCC5)nc4)cc3c21 [AZD1390] (first compound max 10 µM, 7x7, partner max 0.3 µM) | -0.0856 | -0.0635 | -0.0841 | -0.0388 | -0.0489 | -0.0749 | -0.0844 | -0.0985 | -0.037 | -0.0165 | -0.179 | 0.0115 | 0.0078 | -0.0484 | -0.0196 | -0.0045
4 | NC1(C(=O)N[C@@H](CCO)c2ccc(Cl)cc2)CCN(c2ncnc3[nH]ccc23)CC1 [Capivasertib] + CC(=O)c1c(C)c2cnc(Nc3ccc(N4CCNCC4)cn3)nc2n(C2CCCC2)c1=O [Palbociclib] (first compound max 10 µM, 7x7, partner max 10 µM) | -0.0094 | 0.0532 | -0.0402 | 0.0024 | -0.0233 | -0.0413 | 0.0404 | 0.001 | -0.0269 | -0.0456 | -0.0562 | 0.0373 | -0.0425 | -0.0256 | -0.0837 | -0.0218
5 | CC(=O)c1c(C)c2cnc(Nc3ccc(N4CCNCC4)cn3)nc2n(C2CCCC2)c1=O [Palbociclib] + Cn1cnc2c(F)c(Nc3ccc(Br)cc3Cl)c(C(=O)NOCCO)cc21 [Selumetinib] (first compound max 10 µM, 7x7, partner max 10 µM) | -0.0273 | -0.0355 | 0.0351 | -0.0257 | 0.0361 | 0.0127 | 0.0263 | 0.0259 | -0.0449 | -0.0041 | -0.0551 | -0.007 | -0.0881 | -0.0058 | 0.0128 | -0.0196
6 | COc1nnc2ccc(N3CCC(c4ccc(OCCN5CCN(C)C(=O)[C@H]5C)cc4)CC3)nn12 [AZD5153] + CC1(C)CCC(CN2CCN(c3ccc(C(=O)NS(=O)(=O)c4ccc(NCC5CCOCC5)c([N+](=O)[O-])c4)c(Oc4cnc5[nH]ccc5c4)c3)CC2)=C(c2ccc(Cl)cc2)C1 [Venetoclax] (first compound max 1 µM, 7x7, partner max 1 µM) | -0.0234 | -0.0006 | -0.0592 | -0.0708 | -0.0676 | -0.101 | -0.0509 | -0.0537 | 0.0165 | -0.0579 | -0.125 | -0.0251 | -0.0179 | 0.0009 | -0.058 | 0.0193
7 | CC(=O)c1c(C)c2cnc(Nc3ccc(N4CCNCC4)cn3)nc2n(C2CCCC2)c1=O [Palbociclib] + Cc1c2c(nn1C)CSCc1cc(n(C)n1)CSc1cc(c3ccccc3c1)OCCCc1c(C(=O)O)n(C)c3c-2c(Cl)ccc13 [AZD5991] (first compound max 10 µM, 7x7, partner max 1 µM) | -0.0782 | -0.0088 | -0.0198 | -0.0289 | -0.112 | -0.0147 | 0.0096 | -0.0869 | -0.0904 | -0.0357 | -0.0004 | 0.019 | -0.0519 | -0.0224 | -0.0666 | -0.0191
8 | NC1(C(=O)N[C@@H](CCO)c2ccc(Cl)cc2)CCN(c2ncnc3[nH]ccc23)CC1 [Capivasertib] + CCN(CCO)CCCOc1ccc2c(Nc3cc(CC(=O)Nc4cccc(F)c4)[nH]n3)ncnc2c1 [AZD2811] (first compound max 10 µM, 7x7, partner max 1 µM) | -0.0382 | -0.0523 | -0.0578 | 0.016 | 0.0026 | -0.0235 | -0.0295 | 0.0481 | -0.0003 | -0.0558 | -0.103 | 0.0106 | -0.0504 | 0.0332 | -0.0239 | 0.0103
